Values of other authors as cited in publication PMC6426469 (Science Advances, 2019).

How the values were obtained:
APP/PS1 mice [1] = settings: prolonged treatment for 30 days
APP/PS1 mice [2] = settings: 1-week treatment
DG granule cells = settings: previous study

SMILES	spatial memory impairments, Morris water maze (APP/PS1 mice [1])	memory impairments, passive avoidance test (APP/PS1 mice [2])	efficacy on spike probability (DG granule cells)
C#CCN(C)[C@H](C)Cc1ccccc1 [Selegiline, selegiline]	failed to significantly reverse spatial memory impairments	effective in rescuing memory impairments	–
C[C@H](NCc1ccc(OCc2cccc(F)c2)cc1)C(N)=O [safinamide]	–	–	showed prolonged efficacy
